Results from patent publication US9676789B2, “Aminated derivative of homoharringtonine, preparation method therefor, and application thereof” (HANGZHOU BENSHENG PHARMACEUTICAL CO., LTD., priority 2011, dated 2017).
Converted amounts (≈) assume the structure as drawn. Values belong to the compound of their own block, whether it stands above or below them.

Columns and labels:
[1] = test system: CaES-17 (esophageal cancer cell); assay: MTT solid tumor cell growth inhibition, 72 h; assay type: cell-based, human; conditions: Homo sapiens, CaEs17, CaES-17, 72 h; for IC50: read-out: IC50; for IC90: read-out: IC90
Experimental: (§1) Human solid tumor cell lines: Hep-2 ([…]), A549 (human lung cancer), CaES-17 (esophageal cancer cell), PC-3 (prostate cancer), CNE (nasopharyngeal carcinoma cell), and SK-OV-3 (ovarian cancer cell), all of which are purchased from China Center For Type Culture Collection; RKO (human colon adenocarcinoma cell), MGC 803 (human gastric cancer cell), MG63 (osteosarcoma) and U87 MG (malignant glioma cell), all of which are purchased from Fuxiang Bio-tech Co. Ltd., Shanghai, China; PANC-1 (pancreatic cancer), Huh7 (human liver cancer cell), Becap37 (human breast cancer cell), and Hela (human cervical cancer cell), all of which are donated by Cancer Research Institute of Zhejiang University, China.
(§2) Obtaining 4000 well-growing human solid tumor cells and inoculating them into wells of a 96-well cell culture plate. The culture medium is DMEM High Glucose cell culture medium containing 10% fetal bovine serum. The plate is placed in a carbon dioxide cell incubator (5% CO2) at 37° C. and incubating for 24 hours. After adding the homoharringtonine derivatives of different concentration and mixing uniformly, the plate is placed in a carbon dioxide cell incubator (5% CO2) at 37° C. and incubating for 72 hours. Then the viable cell concentration is determined by the MTT method and the cell viability (%) after drug treatment is calculated. In this experiment, the cell viability of control group (not treated with any compound) is set as 100%.

PC-3 (prostate cancer) = assay: MTT solid tumor cell growth inhibition, 72 h; assay type: cell-based, human; conditions: Homo sapiens, PC-3, 72 h; for IC50: read-out: IC50; for IC90: read-out: IC90
Experimental: as §1, §2

MG63 (osteosarcoma) = assay: MTT solid tumor cell growth inhibition, 72 h; assay type: cell-based, human; conditions: Homo sapiens, MG 63, 72 h; for IC50: read-out: IC50; for IC90: read-out: IC90
Experimental: as §1, §2

[2] = test system: PANC-1 (pancreatic cancer); assay: MTT solid tumor cell growth inhibition, 72 h; assay type: cell-based, human; conditions: Homo sapiens, PANC-1, 72 h; for IC50: read-out: IC50; for IC90: read-out: IC90
Experimental: as §1, §2

[3] = test system: SK-OV-3 (ovarian cancer cell); assay: MTT solid tumor cell growth inhibition, 72 h; assay type: cell-based, human; conditions: Homo sapiens, SK-OV-3, 72 h; for IC50: read-out: IC50; for IC90: read-out: IC90
Experimental: as §1, §2

[4] = test system: U87 MG (malignant glioma cell); assay: MTT solid tumor cell growth inhibition, 72 h; assay type: cell-based, human; conditions: Homo sapiens, U-87 MG; for IC50: read-out: IC50; for IC90: read-out: IC90
Experimental: as §1, §2

[5] = test system: CNE (nasopharyngeal carcinoma cell); assay: MTT solid tumor cell growth inhibition, 72 h; assay type: cell-based, human; conditions: Homo sapiens; for IC50: read-out: IC50; for IC90: read-out: IC90
Experimental: as §1, §2

[6] = test system: K562/adr (drug-resistant, chronic myeloid leukemia, CML); assay: MTT leukemia cell growth inhibition, 72 h; assay type: cell-based, human; conditions: Homo sapiens, K562/Adr; for IC50: read-out: IC50; for IC90: read-out: IC90
Source text: (§3) Leukemia cell lines: K562/adr (drug-resistant, chronic myeloid leukemia, CML), NB4 (acute promyelocytic leukemia, AML), Kasumi-1 (acute myeloid leukemia M2 type, AML-M2), Jurkat (acute lymphoblastic leukemia, ALL), all of which are donated by Cancer Research Institute of Zhejiang University, China; and H9 (acute lymphoblastic leukemia, ALL), which is purchased from China Center for Type Culture Collection.
(§4) Obtaining 6000 well-growing leukemia cells and inoculating them into wells of a 96-well cell culture plate. The culture medium is the 1640 cell culture medium containing 10% fetal bovine serum. After adding the homoharringtonine derivatives of different concentrations and mixing uniformly, placing the plate in a carbon dioxide cell incubator (5% CO2) at 37° C. and incubating for 72 hours. Then the viable cell concentration is determined by the MTT method. In this experiment, the cell viability in control group (not treated with any compound) is set as 100%.

[7] = test system: H9 (acute lymphoblastic leukemia, ALL); assay: MTT leukemia cell growth inhibition, 72 h; assay type: cell-based, human; conditions: Homo sapiens, H9, 72 h; for IC50: read-out: IC50; for IC90: read-out: IC90
Source text: as §3, §4

[8] = test system: Kasumi-1 (acute myeloid leukemia M2 type, AML-M2); assay: MTT leukemia cell growth inhibition, 72 h; assay type: cell-based, human; conditions: Homo sapiens, Kasumi-1, 72 h; for IC50: read-out: IC50; for IC90: read-out: IC90
Source text: as §3, §4

[9] = test system: Jurkat (acute lymphoblastic leukemia, ALL); assay: MTT leukemia cell growth inhibition, 72 h; assay type: cell-based, human; conditions: Homo sapiens; for IC50: read-out: IC50; for IC90: read-out: IC90
Source text: as §3, §4

[10] = test system: NB4 (acute promyelocytic leukemia, AML); assay: MTT leukemia cell growth inhibition, 72 h; assay type: cell-based, human; conditions: Homo sapiens, NB4, 72 h; for IC50: read-out: IC50; for IC90: read-out: IC90
Source text: as §3, §4

[11] = test system: RPMI8226 (multiple myeloma); assay: MTT multiple myeloma cell growth inhibition, 72 h; assay type: cell-based, human; conditions: Homo sapiens, RPMI-8226, RPMI8226, 72 h; for IC50: read-out: IC50; for IC90: read-out: IC90
Experimental: Multiple myeloma and lymphoma cell lines: RPMI8226 (multiple myeloma), purchased from Fuxiang Bio-tech Co. Ltd., Shanghai, China.
as §4, with “method.” for “method. In this experiment, the cell viability in control group (not treated with any compound) is set as 100%.”

A549 (human lung cancer) = assay: MTT solid tumor cell growth inhibition, 72 h; assay type: cell-based; conditions: Homo sapiens, A549, 72 h; for IC50: read-out: IC50; for IC90: read-out: IC90
Experimental: as §1, §2

[12] = test system: Becap37 (human breast cancer cell); assay: MTT solid tumor cell growth inhibition, 72 h; assay type: cell-based; conditions: Homo sapiens, Becap37, 72 h; for IC50: read-out: IC50; for IC90: read-out: IC90
Experimental: as §1, §2

[13] = test system: MGC 803 (human gastric cancer cell); assay: MTT solid tumor cell growth inhibition, 72 h; assay type: cell-based; conditions: Homo sapiens, MGC 803, 72 h; for IC50: read-out: IC50; for IC90: read-out: IC90
Experimental: as §1, §2

[14] = test system: Hela (human cervical cancer cell); assay: MTT solid tumor cell growth inhibition, 72 h; assay type: cell-based; conditions: Homo sapiens, HeLa; for IC50: read-out: IC50; for IC90: read-out: IC90
Experimental: as §1, §2

[15] = test system: RKO (human colon adenocarcinoma cell); assay: MTT solid tumor cell growth inhibition, 72 h; assay type: cell-based; conditions: Homo sapiens; for IC50: read-out: IC50; for IC90: read-out: IC90
Experimental: as §1, §2

[16] = test system: Huh7 (human liver cancer cell); assay: MTT solid tumor cell growth inhibition, 72 h; assay type: cell-based; conditions: Homo sapiens, Huh-7, Huh7, 72 h; for IC50: read-out: IC50; for IC90: read-out: IC90
Experimental: as §1, §2

[17] = test system: Hep-2 (human hepatocellular carcinoma); assay: MTT solid tumor cell growth inhibition, 72 h; assay type: cell-based; conditions: Homo sapiens, HEp-2, Hep2, 72 h; for IC50: read-out: IC50; for IC90: read-out: IC90
Experimental: as §1, §2

[18] = test system: A549, PANC-1, Becap37, MG63, Huh7, RKO, Hela, CaES-17, CNE, Hep-2, PC-3 and SK-OV-3; assay: Anti-human solid tumor effect, summary over cell lines; assay type: cell-based; conditions: result in words, summary of Table 2
Experimental: as §1, §2

IC50 [1]: 0.037 µg/mL (≈ 0.0678 µM)
IC90 [1]: > 16 µg/mL
IC50 (PC-3 (prostate cancer)): 0.004 µg/mL (≈ 0.00733 µM)
IC90 (PC-3 (prostate cancer)): 0.049 µg/mL (≈ 0.0898 µM)
IC50 (MG63 (osteosarcoma)): 0.01 µg/mL (≈ 0.0183 µM)
IC90 (MG63 (osteosarcoma)): 1.2 µg/mL (≈ 2.2 µM)
IC50 [2]: 0.035 µg/mL (≈ 0.0641 µM)
IC90 [2]: > 16 µg/mL
IC50 [3]: 0.003 µg/mL (≈ 0.0055 µM)
IC90 [3]: 0.009 µg/mL (≈ 0.0165 µM)
IC50 [4]: 0.004 µg/mL (≈ 0.00733 µM)
IC90 [4]: 0.018 µg/mL (≈ 0.033 µM)
IC50 [5]: 0.038 µg/mL (≈ 0.0696 µM)
IC90 [5]: > 16 µg/mL
IC50 [6]: 0.035 µg/mL (≈ 0.0641 µM)
IC90 [6]: 0.98 µg/mL (≈ 1.8 µM)
IC50 [7]: 0.02 µg/mL (≈ 0.0367 µM)
IC90 [7]: 0.046 µg/mL (≈ 0.0843 µM)
IC50 [8]: 0.005 µg/mL (≈ 0.00916 µM)
IC90 [8]: 0.024 µg/mL (≈ 0.044 µM)
IC50 [9]: 0.007 µg/mL (≈ 0.0128 µM)
IC90 [9]: 16 µg/mL (≈ 29.3 µM)
IC50 [10]: 0.006 µg/mL (≈ 0.011 µM)
IC90 [10]: 0.012 µg/mL (≈ 0.022 µM)
IC50 [11]: 0.006 µg/mL (≈ 0.011 µM)
IC90 [11]: 0.027 µg/mL (≈ 0.0495 µM)
IC50 (A549 (human lung cancer)): 0.03 µg/mL (≈ 0.055 µM)
IC90 (A549 (human lung cancer)): > 16 µg/mL
IC50 [12]: 0.01 µg/mL (≈ 0.0183 µM)
IC90 [12]: 11.6 µg/mL (≈ 21.2 µM)
IC50 [13]: 0.016 µg/mL (≈ 0.0293 µM)
IC90 [13]: 0.2 µg/mL (≈ 0.367 µM)
IC50 [14]: 0.019 µg/mL (≈ 0.0348 µM)
IC90 [14]: 16 µg/mL (≈ 29.3 µM)
IC50 [15]: 0.003 µg/mL (≈ 0.0055 µM)
IC90 [15]: 0.009 µg/mL (≈ 0.0165 µM)
IC50 [16]: 0.004 µg/mL (≈ 0.00733 µM)
IC90 [16]: 0.049 µg/mL (≈ 0.0898 µM)
IC50 [17]: 0.014 µg/mL (≈ 0.0257 µM)
IC90 [17]: > 16 µg/mL
Structure (SMILES): COC(=O)C[C@](O)(CCCC(C)(C)O)C(=O)O[C@@H]1C(OC)=C[C@]23CCCN2CCc2cc4c(cc2[C@H]13)OCO4 [HHT, O-3-[(2R)-2,6-dihydroxy-2-(2′-methoxy-2′-oxoethyl)-6-methylheptanoyl]cephalotaxine, reference compound]

Structure (SMILES): COC1=C[C@]23CCCN2CCc2cc4c(cc2[C@@H]3[C@@H]1OC(=O)[C@@](O)(CCCC(C)(C)O)CC(=O)N1CCN(c2ccc(F)cc2)CC1)OCO4 [BS-HH-046, O-3-[(2R)-2,6-dihydroxy-2-(2′-(4-(4-fluorophenyl)piperazinyl)-2′-oxoethyl)-6-methylheptanoyl]cephalotaxine]
IC50 [1]: 0.98 µg/mL (≈ 1.41 µM)
IC90 [1]: 16 µg/mL (≈ 23.1 µM)
IC50 (PC-3 (prostate cancer)): 0.78 µg/mL (≈ 1.12 µM)
IC90 (PC-3 (prostate cancer)): > 16 µg/mL
IC50 (MG63 (osteosarcoma)): 0.23 µg/mL (≈ 0.332 µM)
IC90 (MG63 (osteosarcoma)): > 16 µg/mL
IC50 [2]: 0.45 µg/mL (≈ 0.649 µM)
IC90 [2]: > 16 µg/mL
IC50 [3]: 1.89 µg/mL (≈ 2.72 µM)
IC90 [3]: > 16 µg/mL
IC50 [4]: 0.25 µg/mL (≈ 0.36 µM)
IC90 [4]: > 16 µg/mL
IC50 [5]: 0.3 µg/mL (≈ 0.432 µM)
IC90 [5]: 16 µg/mL (≈ 23.1 µM)
IC50 [6]: 14.5 µg/mL (≈ 20.9 µM)
IC90 [6]: > 16 µg/mL
IC50 [7]: 0.5 µg/mL (≈ 0.721 µM)
IC90 [7]: 7.84 µg/mL (≈ 11.3 µM)
IC50 [8]: 0.26 µg/mL (≈ 0.375 µM)
IC90 [8]: 2.26 µg/mL (≈ 3.26 µM)
IC50 [9]: 0.32 µg/mL (≈ 0.461 µM)
IC90 [9]: 15.2 µg/mL (≈ 21.9 µM)
IC50 [10]: 0.19 µg/mL (≈ 0.274 µM)
IC90 [10]: 0.5 µg/mL (≈ 0.721 µM)
anti-A549, anti-PANC-1, anti-Becap37, anti-MG63, anti-Huh7, anti-RKO, anti-Hela, anti-CaES-17, anti-CNE, anti-Hep-2, anti-PC-3 and anti-SK-OV-3 effect [18]: strong
IC50 [11]: 0.17 µg/mL (≈ 0.245 µM)
IC90 [11]: 0.72 µg/mL (≈ 1.04 µM)
IC50 (A549 (human lung cancer)): 0.84 µg/mL (≈ 1.21 µM)
IC90 (A549 (human lung cancer)): > 16 µg/mL
IC50 [12]: 0.4 µg/mL (≈ 0.577 µM)
IC90 [12]: > 16 µg/mL
IC50 [13]: 0.39 µg/mL (≈ 0.562 µM)
IC90 [13]: 8.28 µg/mL (≈ 11.9 µM)
IC50 [14]: 1.56 µg/mL (≈ 2.25 µM)
IC90 [14]: > 16 µg/mL
IC50 [15]: 0.054 µg/mL (≈ 0.0778 µM)
IC90 [15]: 0.93 µg/mL (≈ 1.34 µM)
IC50 [16]: 1.37 µg/mL (≈ 1.97 µM)
IC90 [16]: > 16 µg/mL
IC50 [17]: 0.27 µg/mL (≈ 0.389 µM)
IC90 [17]: > 16 µg/mL
